The record followed here is ChEMBL document CHEMBL1955793, “Integrated structure-based activity prediction model of benzothiadiazines on various genotypes of HCV NS5b polymerase (1a, 1b and 4) and its application in the discovery of new derivatives” (Bioorg Med Chem, 2012).

SMILES strings stand for the structures. The source made the active and inactive calls. The calls are words filed in the database; no cut-off is given here.

Series [1] relates to Hepatitis C virus. Kind of series: Inhibition of Hepatitis C virus genotype 1b NS5B polymerase. Details: species or system Hepatitis C virus subtype 1b.
Series [2] is described as follows: Inhibition of Hepatitis C virus genotype 1a NS5B polymerase. Details: species or system Hepatitis C virus subtype 1a.
Series [3] can be described thus: Cytotoxicity against human HuH5.2 cells after 1.5 hrs by MTS assay. The format is cell-based, Huh-5-2. A general note: Tetrazolium dyes change colour on reduction, which living cells bring about.
For series [4], the system named is Hepatitis C virus. Nature of the series: Antiviral activity against Hepatitis C virus genotype 1b 1389 infected in human HuH5.2 cells assessed as inhibition of viral replication after 72 hrs by luciferase reporter gene assay. The format is functional, organism-based, Hepacivirus hominis. To be noted: genotype 1b 1389, Huh-5-2, 72 h. On the technique in general: A reporter such as luciferase makes a cellular process visible.

Series [5] deals with Hepatitis C virus genotype 4. Nature of the series: Inhibition of Hepatitis C virus genotype 4 NS5B polymerase at 10 uM.
In series [6] the test system is Hepatitis C virus. Nature of the series: Inhibition of Hepatitis C virus genotype 1b 1389 NS5B polymerase. Details: species or system Hepatitis C virus subtype 1b.

For orientation: IC50 means the concentration at which inhibition is half-maximal. Low values mean greater potency in that assay, high ones weaker potency in that assay. As for `CCCCNn1c(=O)c(C2=NS(=O)(=O)c3ccccc3N2)c(O)c2ccccc21`, the IC50 turned out to be 161 nM in the series on Hepatitis C virus [1] and 951 nM in series [2].
On to `O=c1c(C2=NS(=O)(=O)c3ccccc3N2)c(O)c2ccccc2n1NCc1cccs1`, for which the half-maximal inhibitory concentration (IC50) worked out at 125 nM with Hepatitis C virus [1] and 2330 nM in series [2].
One may read the CC50 as the concentration at which the toxic effect on the cells reaches its halfway point. A high value points to better tolerance by the cells. The EC50 is the midpoint of the concentration-response curve. The term inhibition denotes the relative decrease from the control value, in per cent. Regarding `CCCCn1cc(C2=NS(=O)(=O)c3cc(Br)cnc3N2)c2ccccc21`, the CC50 at 1.5 h in series [3] is 21900 nM. Moreover, the EC50 in the series with Hepatitis C virus [4] was determined as 5890 nM. Further, the inhibition result in series [5] was “inactive”.
For the compound `CCCn1cc(C2=NS(=O)(=O)c3cc(Br)ccc3N2)c2ccccc21`, in series [5], the inhibition entry was “inactive”.
Still for that read-out and setting: next, `CS(=O)(=O)Nc1ccc2c(c1)S(=O)(=O)N=C(c1cn(Cc3ccccc3)c3ccccc13)N2`: 60%; `CCCn1cc(C2=NS(=O)(=O)c3cc(I)ccc3N2)c2ccccc21`: “inactive”.
In the case of `CC(C)CCNn1c(=O)c(C2=NS(=O)(=O)c3ccccc3N2)c(O)c2ccccc21`, the IC50 in the series with Hepatitis C virus [1] stood at 134 nM; in series [2], 629 nM.
With `O=c1c(C2=NS(=O)(=O)c3ccccc3N2)c(O)c2ccccc2n1NCC1CCCCC1`, the 50% inhibitory concentration (IC50) stood at 150 nM in the series with Hepatitis C virus [1] and 2530 nM in series [2].
`CC(C)CCn1cc(C2=NS(=O)(=O)c3ccccc3N2)c2ccccc21`: the CC50 at 1.5 h in series [3] is over 50000 nM. For the same compound, in the series on Hepatitis C virus [4], the EC50 was determined as 19700 nM. For the same compound, in series [5], the inhibition result is “inactive”.
As for `Fc1ccccc1-c1nc2ccn(Cc3ccc(-c4ccc(C(F)(F)F)cc4C(F)(F)F)nn3)cc-2n1` [TEGOBUVIR], the EC50 in the series with Hepatitis C virus [4] came out at 0.7 nM.
Consider `CC(C)CNn1c(=O)c(C2=NS(=O)(=O)c3ccccc3N2)c(O)c2ccccc21`, for which the IC50 in the series on Hepatitis C virus [1] stood at 101 nM; in series [2] it was 941 nM.
Regarding `Cc1c(C2=NS(=O)(=O)c3ccccc3N2)c2ccccc2n1Cc1ccccc1`, in series [5], the inhibition entry is “inactive”.
Consider `CC(Nn1c(=O)c(C2=NS(=O)(=O)c3ccccc3N2)c(O)c2ccccc21)c1ccccc1` (centres undefined), for which the figures for the IC50 (in the series on Hepatitis C virus [1]; in series [2]) were 1490 nM and 16500 nM, respectively.
Compound `CCCn1cc(C2=NS(=O)(=O)c3ccccc3N2)c2ccccc21` came in with a CC50 at 1.5 h in series [3] of over 50000 nM. The concentration for a half-maximal effect (EC50) in the series with Hepatitis C virus [4] was found to be 4150 nM. Besides, the inhibition entry in series [5] is “inactive”.
On to `CC(C)CCn1cc(C2=NS(=O)(=O)c3cc(Br)cnc3N2)c2ccccc21`, for which, in series [3], the CC50 at 1.5 h was over 50000 nM. Further, the half-maximal effective concentration (EC50) in the series with Hepatitis C virus [4] was 7070 nM. Further, the inhibition entry in series [5] was “inactive”.
As for `O=S1(=O)N=C(c2cn(Cc3ccccc3)c3ccccc23)Nc2ncc(Br)cc21`, the half-maximal cytotoxic concentration (CC50) at 1.5 h in series [3] was over 50000 nM. Also, the concentration giving a half-maximal response (EC50) with Hepatitis C virus [4] turned out to be 20200 nM. Moreover, the inhibition result in series [5] is “inactive”.
For the compound `CCCC(Nn1c(=O)c(C2=NS(=O)(=O)c3ccccc3N2)c(O)c2ccccc21)C(C)C` (centres undefined), the IC50 is 1130 nM with Hepatitis C virus [1] and 6400 nM in series [2].
On the same counts, the results for `O=c1c(C2=NS(=O)(=O)c3ccccc3N2)c(O)c2ccccc2n1NCc1cccc(Br)c1` are 75 nM and 1040 nM.
Turning to `CC(C)n1cc(C2=NS(=O)(=O)c3ccccc3N2)c2ccccc21`, in series [5], the inhibition entry was “inactive”.
Take `O=S1(=O)N=C(c2cn(Cc3ccccc3)c3ccccc23)Nc2ccccc21`: the half-maximal cytotoxic concentration (CC50) at 1.5 h in series [3] is over 50000 nM. In addition, in the series on Hepatitis C virus [4], the EC50 was found to be 1860 nM. The inhibition result in series [5] is “inactive”.
On to `O=c1c(C2=NS(=O)(=O)c3ccccc3N2)c(O)c2ccccc2n1NC1CCC1`, for which the 50% inhibitory concentration (IC50) came out at 108 nM with Hepatitis C virus [1] and 278 nM in series [2].
Regarding `O=c1c(C2=NS(=O)(=O)c3ccccc3N2)c(O)c2ccccc2n1NC1CCCCC1`, the results for the half-maximal inhibitory concentration (IC50) (with Hepatitis C virus [1]; in series [2]) were 60 nM and 356 nM, respectively.
As to `CC(C)Nn1c(=O)c(C2=NS(=O)(=O)c3ccccc3N2)c(O)c2ccccc21`, the results for the IC50 (in the series with Hepatitis C virus [1]; in series [2]) were 640 nM and 6350 nM, respectively.
Take `O=c1c(C2=NS(=O)(=O)c3ccccc3N2)c(O)c2ccccc2n1NCc1ccc(Cl)s1`: the values for the IC50 (with Hepatitis C virus [1]; in series [2]) were 1450 nM and 4780 nM, respectively.
On to `O=c1c(C2=NS(=O)(=O)c3ccccc3N2)c(O)c2ccccc2n1NCc1ccccc1`, for which the figures for the 50% inhibitory concentration (IC50) (with Hepatitis C virus [1]; in series [2]) were 129 nM and 5090 nM, respectively.
The corresponding values for `O=c1c(C2=NS(=O)(=O)c3ccccc3N2)c(O)c2ccccc2n1NCC1CC1` are 145 nM and 285 nM.
Consider `O=c1c(C2=NS(=O)(=O)c3ccccc3N2)c(O)c2ccccc2n1NC1=CCOC=C1`, for which the half-maximal inhibitory concentration (IC50) in the series on Hepatitis C virus [1] was 439 nM; in series [2], 4630 nM.
In the case of `CCc1cc(CC[C@]2(C3CCCC3)CC(O)=C(Cc3nc4nc(C)cc(C)n4n3)C(=O)O2)cc(CC)n1` [FILIBUVIR], the concentration giving a half-maximal response (EC50) with Hepatitis C virus [4] was 41 nM.
On to `CCCCn1cc(C2=NS(=O)(=O)c3ccccc3N2)c2cc(Br)ccc21`, for which, in series [3], the CC50 at 1.5 h was 37200 nM. In addition, the half-maximal effective concentration (EC50) in the series with Hepatitis C virus [4] turned out to be 9900 nM. Also, the inhibition entry in series [5] was “inactive”.
For `CC(C)CCn1cc(C2=NS(=O)(=O)c3ccccc3N2)c2cc(Br)ccc21`, the CC50 at 1.5 h in series [3] is over 50000 nM. The EC50 with Hepatitis C virus [4] is 18400 nM. The inhibition entry in series [5] was “inactive”.
For `Cc1ccsc1CNn1c(=O)c(C2=NS(=O)(=O)c3ccccc3N2)c(O)c2ccccc21`, the figures for the IC50 (in the series on Hepatitis C virus [1]; in series [2]) were 1190 nM and 15000 nM, respectively.
Take `O=c1c(C2=NS(=O)(=O)c3ccccc3N2)c(O)c2ccccc2n1NCc1ccccc1Br`: the IC50 with Hepatitis C virus [1] is 469 nM; in series [2] it was 6720 nM.
Turning to `CCC(CC)Nn1c(=O)c(C2=NS(=O)(=O)c3ccccc3N2)c(O)c2ccccc21`, the IC50 came to 120 nM in the series with Hepatitis C virus [1] and 2460 nM in series [2].
On to `O=c1c(C2=NS(=O)(=O)c3ccccc3N2)c(O)c2ccccc2n1NC1CCCCCC1`, for which the results for the IC50 (with Hepatitis C virus [1]; in series [2]) were 217 nM and 1040 nM, respectively.
As for `O=S1(=O)N=C(c2cn(Cc3ccccc3)c3ccc(Br)cc23)Nc2ccccc21`, in series [5], the inhibition entry is “inactive”.
For `CCCCn1cc(C2=NS(=O)(=O)c3cc(NS(C)(=O)=O)ccc3N2)c2cc(Br)ccc21`, the midpoint of cytotoxicity in series [3], the CC50 at 1.5 h, lay at 49200 nM. Further, the half-maximal effective concentration (EC50) in the series with Hepatitis C virus [4] was 7700 nM. Besides, the inhibition in series [5] was determined as 60%.
Regarding `CCCC(CC)Nn1c(=O)c(C2=NS(=O)(=O)c3ccccc3N2)c(O)c2ccccc21` (centres undefined), the IC50 with Hepatitis C virus [1] worked out at 386 nM; in series [2] it was 1890 nM.
As for `CC(C)(C)CCNn1c(=O)c(C2=NS(=O)(=O)c3ccccc3N2)c(O)c2ccccc21`, the values for the IC50 (with Hepatitis C virus [1]; in series [2]) were 135 nM and 411 nM, respectively.
Regarding `Cc1ccccc1CNn1c(=O)c(C2=NS(=O)(=O)c3ccccc3N2)c(O)c2ccccc21`, the IC50 came out at 481 nM with Hepatitis C virus [1] and 6120 nM in series [2].
With `O=c1c(C2=NS(=O)(=O)c3ccccc3N2)c(O)c2ccccc2n1NCc1ccco1`, the IC50 was 305 nM with Hepatitis C virus [1] and 3260 nM in series [2].
On the same counts, the results for `CCCCCNn1c(=O)c(C2=NS(=O)(=O)c3ccccc3N2)c(O)c2ccccc21` are 100 nM and 928 nM.
Consider `O=c1c(C2=NS(=O)(=O)c3ccccc3N2)c(O)c2ccccc2n1NCc1ccc(Br)cc1`, for which the IC50 in the series with Hepatitis C virus [1] came to 4690 nM; in series [2], 10400 nM.
Regarding `CCCC(CCC)Nn1c(=O)c(C2=NS(=O)(=O)c3ccccc3N2)c(O)c2ccccc21`, the IC50 in the series with Hepatitis C virus [1] was 1800 nM; in series [2], 2240 nM.
As to `CC(C)n1cc(C2=NS(=O)(=O)c3cc(Br)cnc3N2)c2ccccc21`, the inhibition entry in series [5] is “inactive”.
Take `Cc1cccc(CNn2c(=O)c(C3=NS(=O)(=O)c4ccccc4N3)c(O)c3ccccc32)c1`: the values for the 50% inhibitory concentration (IC50) (in the series on Hepatitis C virus [1]; in series [2]) were 212 nM and 8210 nM, respectively.
For the compound `C=CCn1cc(C2=NS(=O)(=O)c3cc(Br)cnc3N2)c2ccccc21`, the cytotoxic concentration (CC50) at 1.5 h in series [3] was over 50000 nM. Moreover, in the series on Hepatitis C virus [4], the concentration for a half-maximal effect (EC50) was found to be 25400 nM. In addition, the inhibition entry in series [5] is “inactive”.
`O=c1c(C2=NS(=O)(=O)c3ccccc3N2)c(O)c2ccccc2n1NC1CCCC1`: the half-inhibitory concentration (IC50) in the series on Hepatitis C virus [1] is 150 nM; in series [2] it was 747 nM.
Compound `CC(C)CCn1cc(C2=NS(=O)(=O)c3cc(NS(C)(=O)=O)ccc3N2)c2ccccc21` yielded a concentration for half-maximal inhibition (IC50) in the series on Hepatitis C virus [6] of 1200 nM. The same compound showed an inhibition in series [5] of 60%.
`C=CCn1cc(C2=NS(=O)(=O)c3ccccc3N2)c2ccccc21` yielded a CC50 at 1.5 h in series [3] of over 50000 nM. Further, the inhibition result in series [5] is “inactive”.
For `CCCCn1cc(C2=NS(=O)(=O)c3ccccc3N2)c2ccccc21`, the cytotoxic concentration (CC50) at 1.5 h in series [3] is over 50000 nM. In addition, the concentration for a half-maximal effect (EC50) with Hepatitis C virus [4] is 8010 nM. The inhibition entry in series [5] is “inactive”.
In series [3], `CCCn1cc(C2=NS(=O)(=O)c3cc(Br)cnc3N2)c2ccccc21` showed a CC50 at 1.5 h of 16600 nM. Also, in the series with Hepatitis C virus [4], the EC50 came to 2960 nM. Also, in series [5], the inhibition result is “inactive”.
As to `O=c1c(C2=NS(=O)(=O)c3ccccc3N2)c(O)c2ccccc2n1NCc1ccoc1`, the IC50 in the series on Hepatitis C virus [1] was 133 nM; in series [2], 1550 nM.
The corresponding values for `O=c1c(C2=NS(=O)(=O)c3ccccc3N2)c(O)c2ccccc2n1NCc1nccs1` are 674 nM and 35800 nM.
